Experiments:
Type in all cases: in vivo
[1] = system: Puccinia recondita tritici; test: Leaf Rust of Wheat foliar spray test, inoculated one day after treatment; settings: wheat plants, read-out: Activity against Fungal Diseases PUCCRT (percent disease control); for pest or weed control at 200 ppm: applied to foliage at 200 ppm; for pest or weed control at 3 ppm: Tested at 3 ppm
Procedure: (§1) Fungicide activity data are the level (in percent) at which the given disease was controlled when the given compound was applied to the foliage of the plants at 200 ppm. In a few cases (noted in the table) the compound was applied to the plants at 25 ppm or 3 ppm. The plants were inoculated with the fungus one day after treatment. ***=80-100% control; **=50-79% control; *=0-49% control. […] The activity of the compounds as effective fungicides was determined by applying the compounds to plants and observing control of fungal disease. […] All plants were inoculated with spores of the fungus the day after treatment, then incubated in an environment conducive to disease development. Disease severity was evaluated 4 to 25 days (d) later, depending on the speed of disease development. The following experiments were performed in the laboratory to determine the fungicidal efficacy of the compounds of the invention. […] Each pot contained 3-8 seedlings. These plants were sprayed until wet with the formulated test compounds. On the following day, the leaves were inoculated with an aqueous spore suspension of Puccinia recondita tritici and the plants were kept in high humidity overnight to permit spores to germinate and infect the leaf. The plants were then transferred to a greenhouse until disease developed on untreated control plants. […] The effectiveness of the test compounds at controlling disease when sprayed on leaves was determined by assessing the severity of disease on treated plants, then converting the severity to percent control based on the level of disease on untreated, inoculated plants.

Pyricularia oryzae = test: whole plant or invertebrate; settings: foliar, read-out: Activity against Fungal Diseases PYRIOR (percent disease control)
Septoria tritici = test: Septoria Blotch of Wheat foliar spray test, inoculated one day after treatment; settings: Zymoseptoria tritici, wheat plants, read-out: Activity against Fungal Diseases SEPTTR (percent disease control); for pest or weed control at 200 ppm: applied to foliage at 200 ppm; for pest or weed control at 25 ppm: Tested at 25 ppm
Procedure: as §1, with “3-10” for “3-8”, “compound.” for “compounds.”, “Septoria” for “Puccinia recondita”, “(one day in a dark dew chamber followed by two days in a lighted dew chamber)” for “overnight”

Row | SMILES | pest or weed control at 200 ppm [1] [%] | pest or weed control at 200 ppm (Pyricularia oryzae) [%] | pest or weed control at 200 ppm (Septoria tritici) [%] | pest or weed control at 25 ppm (Septoria tritici) [%] | pest or weed control at 3 ppm [1] [%]
1 | COc1ccc(C(C)Nc2ncnc3scnc23)cc1 (stereo not shown) [Compound 1, [1-(4-Methoxyphenyl)-ethyl]-thiazolo[5,4-d]pyrimidin-7-yl-amine] | 80 to 100 | 80 to 100 |  |  | 
2 | Cc1cc(CCNc2ncnc3scnc23)ccc1Oc1ccncc1C(F)(F)F [Compound 47, {2-[3-methyl-4-(3-trifluoromethylpyridin-4-yloxy)-phenyl]-ethyl}-thiazolo[5,4-d]pyrimidin-7-ylamine] | 80 to 100 | 80 to 100 | 80 to 100 |  | 
3 | Cc1cc(O)ccc1CCNc1ncnc2scnc12 [Compound 57, 3-methyl-4-[2-(thiazolo[5,4-d]pyrimidin-7-ylamino)-ethyl]-phenol] | 0 to 49 |  | 0 to 49 |  | 
4 | FC(F)(F)c1ccc(Oc2ccc(CCNc3ncnc4scnc34)cc2)nc1 [Compound 50, thiazolo[5,4-d]pyrimidin-7-yl-{2-[4-(5-trifluoromethylpyridin-2-yloxy)-phenyl]-ethyl}-amine] |  |  |  | 80 to 100 | 80 to 100
5 | CC(Cc1ccc(Oc2c(F)cnc(C(F)(F)F)c2F)cc1)Nc1ncnc2scnc12 (stereo not shown) [Compound 14, {2-[4-(3,5-Difluoro-2-trifluoromethylpyridin-4-yloxy)-phenyl]-1-methyl-ethyl}-thiazolo[5,4-d]pyrimidin-7-ylamine] |  |  |  | 80 to 100 | 0 to 49
6 | COc1ccc(CCNc2ncnc3scnc23)c(F)c1 [Compound 55, [2-(2-fluoro-4-methoxyphenyl)-ethyl]-thiazolo[5,4-d]pyrimidin-7-ylamine] | 80 to 100 |  | 0 to 49 |  | 
7 | Oc1ccc(CCNc2ncnc3scnc23)cc1 [Compound 3, 4-[2-(thiazolo[5,4-d]pyrimidin-7-ylamino)-ethyl]-phenol] | 0 to 49 | 0 to 49 |  | 0 to 49 | 
8 | COc1cc(CCNc2ncnc3scnc23)ccc1Oc1c(Cl)cnc(C(F)(F)F)c1Cl [Compound 48, {2-[4-(3,5-dichloro-2-trifluoromethylpyridin-4-yloxy)-3-methoxyphenyl]-ethyl}-thiazolo[5,4-d]pyrimidin-7-ylamine] | 80 to 100 | 80 to 100 | 80 to 100 |  | 
9 | Oc1ccc(CCNc2ncnc3scnc23)c(F)c1 [Compound 58, 3-fluoro-4-[2-(thiazolo[5,4-d]pyrimidin-7-ylamino)-ethyl]phenol] | 0 to 49 |  | 0 to 49 |  | 
10 | COc1ccc(CCNc2ncnc3scnc23)cc1C [Compound 19, [2-(4-methoxy-3-methylphenyl)-ethyl]-thiazolo[5,4-d]pyrimidin-7-ylamine] | 80 to 100 |  | 50 to 79 |  | 
11 | Fc1cc(Oc2cc(C(F)(F)F)ncn2)ccc1CCNc1ncnc2scnc12 [Compound 63, {2-[2-fluoro-4-(6-trifluoromethylpyrimidin-4-yloxy)-phenyl]-ethyl}-thiazolo[5,4-d]pyrimidin-7-ylamine] | 80 to 100 |  | 80 to 100 |  | 
12 | COc1cc(CCNc2ncnc3scnc23)ccc1Oc1cc(C(F)(F)F)ncn1 [Compound 54, {2-[3-methoxy-4-(6-trifluoromethylpyrimidin-4-yloxy)-phenyl]-ethyl}-thiazolo[5,4-d]pyrimidin-7-ylamine] | 80 to 100 |  | 80 to 100 |  | 
13 | Fc1nc(F)c(F)c(Oc2ccc(CCNc3ncnc4scnc34)cc2)c1F [Compound 5, {2-[4-(2,3,5,6-tetrafluoropyridin-4-yloxy)-phenyl]-ethyl}-thiazolo[5,4-d]pyrimidin-7-ylamine] |  |  |  | 0 to 49 | 80 to 100
14 | FC(F)(F)COc1ccc(CCNc2ncnc3scnc23)cn1 [Compound 4, thiazolo[5,4-d]pyrimidin-7-yl-{2-[6-(2,2,2-trifluoroethoxy)-pyridin-3-yl]-ethyl}-amine] | 80 to 100 | 80 to 100 |  | 0 to 49 | 
15 | Cc1cc(CCNc2ncnc3scnc23)ccc1O [Compound 20, 2-methyl-4-[2-(thiazolo[5,4-d]pyrimidin-7-ylamino)-ethyl]-phenol] | 0 to 49 |  | 0 to 49 |  | 
16 | COc1cc(CCNc2ncnc3scnc23)ccc1Oc1cnccc1C(F)(F)F [Compound 29, {2-[3-methoxy-4-(4-trifluoromethylpyridin-3-yloxy)-phenyl]-ethyl}-thiazolo[5,4-d]pyrimidin-7-ylamine] |  |  |  | 50 to 79 | 80 to 100
17 | Cc1cc(CCN(c2nc(C(F)(F)F)c(Cl)s2)c2ncnc3scnc23)ccc1Oc1nc(C(F)(F)F)c(Cl)s1 [Compound 45, (5-chloro-4-trifluoromethylthiazol-2-yl)-{2-[4-(5-chloro-4-trifluoromethylthiazol-2-yloxy)-3-methylphenyl]-ethyl}-thiazolo[5,4-d]pyrimidin-7-ylamine] |  |  |  | 0 to 49 | 0 to 49
18 | COc1cc(CCNc2ncnc3scnc23)ccc1Oc1cc(C(F)(F)F)ccn1 [Compound 17, {2-[3-methoxy-4-(4-trifluoromethylpyridin-2-yloxy)-phenyl]-ethyl}-thiazolo[5,4-d]pyrimidin-7-ylamine] |  |  |  | 80 to 100 | 80 to 100
19 | COc1ccc(CCNc2ncnc3scnc23)c(C)c1 [Compound 56, [2-(4-methoxy-2-methylphenyl)-ethyl]-thiazolo[5,4-d]pyrimidin-7-ylamine] | 0 to 49 |  | 50 to 79 |  | 
20 | N#Cc1ccnc(Oc2ccc(CCNc3ncnc4scnc34)cc2)c1 [Compound 2, 2-{4-[2-(thiazolo[5,4-d]pyrimidin-7-ylamino)-ethyl]-phenoxy}-isonicotinonitrile] | 80 to 100 | 80 to 100 |  | 50 to 79 | 
21 | Fc1cc(Oc2cc(C(F)(F)F)ccn2)ccc1CCNc1ncnc2scnc12 [Compound 60, {2-[2-fluoro-4-(4-trifluoromethylpyridin-2-yloxy)-phenyl]-ethyl}-thiazolo[5,4-d]pyrimidin-7-ylamine] | 80 to 100 |  | 80 to 100 |  | 
22 | COc1cc(CCNc2ncnc3scnc23)ccc1Oc1ccc(C(F)(F)F)cn1 [Compound 51, {2-[3-methoxy-4-(5-trifluoromethylpyridin-2-yloxy)-phenyl]-ethyl}-thiazolo[5,4-d]pyrimidin-7-ylamine] |  |  |  | 80 to 100 | 80 to 100

Source: patent US8921382B2, “Thiazolo[5,4-d] pyrimidines and their use as agrochemicals” (Dow AgroSciences, LLC., priority 2010, dated 2014)
